From patent publication US9885060B2, “Alkene production” (Evonik Degussa GmbH, priority 2015, dated 2018)

Assays:
Assay type in all cases: biochemical
OleT [1] = assay: Decarboxylation of FAs C22 to C4 employing the FDH-CamAB-OleT redox-cascade; conditions: for Conversion / α-Olefin / Selectivity α-Olefin / Selectivity β-OH / Selectivity n-Alkanone / Selectivity α-OH: 10 mM substrate
Description: Enzymatic reactions (1 mL scale) were quenched by addition of 100 μL 5 N Extraction of substrate and products was performed with 500 μL EtOAc containing 0.1% 1-decanol as internal standard. The organic phase was dried over anhydrous Na2SO4. Derivatization of carboxylic acids (fatty acids and hydroxy acids) to the corresponding methyl esters was achieved by mixing the organic phase with MeOH (2.5:1.5 v/v) followed by supplementation of 5 to 15 μL of 2 M TMSCHN2 (trimethylsilyldiazomethane in diethyl ether). The mixture was incubated for 30 min, 25° C. and 750 rpm before injection into GC-FID or GC-MS, Extraction and derivatization of products and substrates from conversion of short chain FAs ([…]) was performed using the same protocol but all steps were performed on ice to prevent undesired loss of volatile products.
Products from FA substrates with chain lengths ranging from C22 to C10 were separated on a HP5 column (Programm) and detected by GC-FID or GC-MS. Extracted products from conversion of nonanoic acid (I-octene as product) were separated on a DB1702 column (Programm) and detected by GC-FID. Authentic standards of substrates and terminal olefins were treated as described above and were used as references for identification and preparation of calibration curves. Detection of volatile short chain terminal olefins (1-butene/1-propene [ongoing] to 1-heptene) was accomplished by manual injection from vial headspaces into GC-MS, in order to prevent loss of products, the vials containing the reaction mixtures were sealed with a PTFE septum. After conversion the closed vial was heated for 10 min at 80° C., together with a 10 ml syringe (TYPE). From the headspace 2 to 9 μl volumes were injected splitless into a GC-MS chromatograph and analytes were separated on a HP5 column (Programm). Calibration curves for 1-pentene, 1-hexene and 1-heptene were prepared in the same way at 4° C. and using 5% DMF as cosolvent.
The substrate scope of OleT was further investigated by varying the FA chain length from C3 to C22. […] For the first time, short EAs could be decarboxylated to the corresponding olefins, covering the whole spectrum from C11 down to C4. […] Due to the high volatility of short chain olefins, product work up was done at 4° C. […] (2.53 mM product from 5 mM lauric acid). Head-space analysis by GC-MS from reactions with short chain FAs (C8-C5) confirmed the formation of the respective α-olefins, allowing the first biotechnological access to 1-heptene, 1-hexene and 1-pentene and 1-butene with OleT.
Conversion of heptanoic acid was carried out as described in Example 4 using the OleTCamAB-FDH reaction cascade.
Calibration curves for 1-hexene were prepared accordingly ranging from 0.05 to 2 mM. Due to a strong overlap of […] with the peak areas of CO2 and EtOH (FIG. 1, peaks a, b and c) the ion extraction mode of the GC-MS to generate reliable calibration curves was used. Neither CO2 nor EtOH interfered with the product peak area. This can be seen comparing FIGS. 1 and 5 which allow reliable and linear quantification of 1-hexene (FIG. 6) using manual headspace GC-MS injection.
Manual headspace injection into GC-MS was successfully performed for all substrates with chain lengths of C11 to C6. Conversion of 10 mM heptanoic acid allowed reliable formation of up to 1.3 mM 1-hexene without further optimization of the reaction conditions.

OleT [2] = assay: Trapping, derivatization (Br2/DCM impinger) and quantification of 1-butene and 1-propene formed by the OleT-CamAB-FDH cascade; conditions: 10 mM substrate, 10 ml scale
Description: FIG. 7 is a picture of a novel reaction set up for trapping volatile α-olefins, such as 1-propene and 1-butene. A small impinger containing 10 ml of a 20 mM Br2/DCM solution was placed on top of the flask serving as sole gas outlet and trap for α-olefin products. The functionality of this system was successfully confirmed using an analytical standard of 1-heptene. The concept for derivatization and trapping of volatile α-olefins is shown in Scheme 2.
Production of 1-propene and 1-butene was initially confirmed using manual headspace GC-MS injection. Since the quantification of 1-propene and 1-butene using analytical standards was not feasible, a novel trapping/derivatization system for highly volatile short-chain α-olefins derived from biocatalytic reactions was designed. […]
The obtained products were analyzed by GC-FID and GC-MS using analytical standards of 1,2-dibromobutane and 1,2-dibromopropane. Due to the (visible) gas exhaust (CO2 production by OleT and FDH) and strong evaporation of DCM (˜70% volume lost after 24 h), the residual volume in the impinger was determined to allow reliable product quantification. Calibration curves for 1,2-dibromobutane and 1,2-dibromopropane were prepared to allow quantification of produced 1-propene and 1-butene (not shown). […]

OleT [3] = assay: Decarboxylation of stearic and palmitic acid by OleT using O2/CamAB or H2O2 as oxidant; conditions: 1 μM OleT, 1 mM substrate
[4] = 200 μM NADPH + O2, CamAB, 60 min
[5] = 1 mM H2O2, 150 min, no CamAB, strong precipitation observed
[6] = 1 mM NADPH + O2, CamAB, 150 min

## CCCC(=O)O [C4, butyric acid]
OleT [1]; 25 °C, 24 h
  Conversion: 5%
  α-Olefin: 504 µM
OleT [2]
  α-olefin formed (trapped as 1,2-dibromoalkane): 504 µM

## CCCCCCCCCCCC(=O)O [C12, lauric acid]
OleT [1]; 4° C., 5 mM lauric acid
  product concentration: 2.53 mM
OleT [1]; 4 °C, 72 h
  Conversion: 33%
  Selectivity α-Olefin: 73 % GC-area
  Selectivity β-OH: 30 % GC-area
  α-Olefin: 3260 µM
OleT [1]; 25 °C, 24 h
  Conversion: 3%
  α-Olefin: 273 µM

## CCCCC(=O)O [C5, valeric acid]
OleT [1]; 25 °C, 24 h
  Conversion: 8.3%
  α-Olefin: 834 µM
OleT [2]
  α-olefin formed (trapped as 1,2-dibromoalkane): 834 µM

## CCCCCC(=O)O [C6, caproic acid/hexanoic acid]
OleT [1]; 4 °C, 72 h
  Conversion: 7.7%
  α-Olefin: 772 µM
OleT [1]; 25 °C, 24 h
  Conversion: 12%
  α-Olefin: 1170 µM

## CCCCCCCCCCCCCCCC(=O)O [Palmitic Acid, palmitic acid]
OleT [3]; 200 μM H2O2, 60 min, no CamAB
  Coupling: 33%
  TOF: 65 h⁻¹
  TON: 65
  α-Olefin: 65 µM
OleT [3]; 200 μM NADH + O2, CamAB, 6 min
  Coupling: 3%
  TOF: 60 h⁻¹
  TON: 60
  α-Olefin: 6 µM
OleT [3]; [4]
  Coupling: 10%
  TOF: 21 h⁻¹
  TON: 21
  α-Olefin: 21 µM
OleT [3]; [5]
  Coupling: 7%
  TOF: 29 h⁻¹
  TON: 29
  α-Olefin: 73 µM
OleT [3]; 1 mM NADH + O2, CamAB, 60 min
  Coupling: 1%
  TOF: 9 h⁻¹
  TON: 9
  α-Olefin: 9 µM
OleT [3]; [6]
  Coupling: 3%
  TOF: 13 h⁻¹
  TON: 33
  α-Olefin: 33 µM
OleT [1]; 4 °C, 72 h
  Conversion: 21%
  Selectivity n-Alkanone: 6 % GC-area
  Selectivity α-OH: <1 % GC-area
  Selectivity α-Olefin: 80 % GC-area
  Selectivity β-OH: 14 % GC-area
  α-Olefin: 2059 µM
OleT [1]; 25 °C, 24 h
  Conversion: 11%
  Selectivity n-Alkanone: 8 % GC-area
  Selectivity α-OH: 3 % GC-area
  Selectivity α-Olefin: 72 % GC-area
  Selectivity β-OH: 23 % GC-area
  α-Olefin: 1111 µM
